According to patent US4234581A, “Thieno[2,3-d]oxazines” (Mead Johnson & Company, priority 1979, dated 1980):
Counter-ions that a name gives are not always drawn. Like-named read-outs stand apart in the source and are kept apart here.

Columns and labels:
[1] = system: passive cutaneous anaphylaxis reaction (PCA) in the rat; experiment: passive cutaneous anaphylaxis reaction (PCA) in the rat; type: in vivo
Method: Activity of test compounds in the passive cutaneous anaphylaxis reaction (PCA) in the rat has been shown in the prior art to correlate with the utility of active compounds in the treatment of immediate hypersensitivity conditions such as asthma. Rat reaginic antiserum is prepared substantially according to the method of Mota, Immunology 7, 681-699 (1964) employing male Sprague-Dawley (Carworth Farms) or Wistar (Harlan) rats weighing 100-175 g. which are injected intramuscularly with a solution of egg albumin in saline at a dose of 10 mg. per kg. and intraperitoneally with 2×10^10 Bordetella pertussis organisms. Twelve days after injection, the serum is collected and the antibody titer is determined. The sera are pooled which contain sufficient antibody to cause a 10 mm. spot in the dorsal skin of the rat in the PCA test after dilution 10 fold. The highest dilution of antiserum capable of inducing PCA in the rat 48 to 72 hrs. after injection is normally in the range of 50-80. The selected reaginic anti-sera are stored frozen until use.
For carrying out the test, groups of 5 to 10 male Sprague-Dawley (Carworth Farms) rats, each rat weighing 100-150 g., are used. Forty-eight hours prior to the test, the animals are passively sensitized by intradermal injection of 0.1 ml. of diluted antiserum at various locations on the shaved skin of the back. A dilution of antiserum is used so that a spot following challenge of 20-25 mm. in diameter is obtained. […] A latent period of 48 hrs. is usually allowed before the animals are challenged. According to the usual screening procedure, 15 min. prior to challenge the test drug is administered either by intraperitoneal injection, intravenous injection, or orally by gavage. Challenge involves an intravenous injection of a dose of 25 mg./kg. of egg albumin and 25 mg./kg. of Evans' blue dye in saline. The dye serves simply as a marker. The response of the antigen challenge in the localities on the skin which have been previously sensitized results in increased capillary permeability at the sensitized site and leakage of the blue dye into the area surrounding the sensitized site. The PCA response is scored by measuring the mean spot diameter on the excised and reversed skin 20-30 min. after challange. In each experiment a group of control animals receiving no drug is employed. The percent inhibition of the PCA is calculated by determining the mean diameters of the spots in the control and treated animals and computing the difference between the squares of the mean diameters of the control animals and the treated animals and expressing this difference as a percentage of the square of the mean diameter of the control animals. Results are expressed as percent inhibition.
Rats may be injected intradermally with 0.1 ml. of a solution containing 1 mg./ml. histamine 10 min. prior to sacrificing. This permits a determination of whether the test compound is exerting an antihistaminic effect on the end organ rather than interfering with mediator release from the mast cells in inhibiting the PCA.
Various doses of test compound in parallel experiments are employed when a dose response curve is to be constructed for quantitative comparison of potencies among active compounds. The ID50, the dose at which 50% inhibition of the PCA occurs, is determined by interpolation. In other modifications, various time intervals are allowed between drug treatment and challenge to ascertain the duration of drug effect.

[2] = system: passively sensitized rat peritoneal mast cells; experiment: antagonism of antigen-induced histamine release from passively sensitized rat peritoneal mast cells; type: cell-based; conditions: in vitro; for IC50: Mast cell, egg albumin antigen challenge
From the text: The method employed is similar to that described by Kusner, et al., Journal of Pharmacology and Experimental Therapeutics 184, 41-46 (1973). The test involves isolation of mast cells from the rat by lavage of the peritoneal cavity and isolation of the cellular material from the lavage fluid. The cells are sensitized by shaking in antiserum from rats sensitized as described above with respect to the passive cutaneous anaphylaxis test. The sensitized cells are then exposed to the egg albumin antigen and the release of histamine from the cells is measured by an automated fluorometric method. The inhibition of histamine release by the presence of a test compound during challenge of the sensitized cells is a measure of the activity of the test compound. Dose response curves are prepared employing various concentrations of the test substance and the concentration which inhibits histamine release by 50% (IC50) is determined by interpolation.

[3] = system: immunologically induced bronchoconstriction; experiment: allergic respiratory model in the rat (immunologically induced bronchoconstriction); type: in vivo; conditions: for ED50: 0.25 h, intraduodenal 15 min. prior to egg albumin challenge, half maximal response (ID1/2 max.), table titled Oral
[4] = Acute oral toxicity in the rat; conditions: in vivo
From the text: | *Acute oral toxicity in the rat.

[5] = 0.25 h, oral, rat, drug 15 min. prior to challenge, 50% inhibition of PCA, read-out: PCA Response (ID50, mg./kg.)
[6] = range for Procedures 2, 3 and 36, read-out: IC50, inhibition of histamine release
[7] = Rat2, oral, rat, 2 hr. interval between drug dosage and challenge, read-out: PCA Response (ID50, mg./kg.)

SMILES: Cc1c(CC(C)C)sc2nc(C(=O)O)[nH]c(=O)c12 [Procedure 43, 3,4-DIHYDRO-5-METHYL-6-(2-METHYLPROPYL)-4-OXOTHIENO[2,3-d]PYRIMIDINE-2-CARBOXYLIC ACID DISODUM SALT SESQUIHYDRATE]
- ED50 [1, 5]: 6.7 mg/kg

SMILES: CCCCCCc1sc2nc(CO)[nH]c(=O)c2c1C [Procedure 56, 6-HEXYL-2-(HYDROXYMETHYL)-5-METHYLTHIENO[2,3-d]PYRIMIDINE-4-(3H)-ONE]
- ED50 [1, 5]: 28 mg/kg

SMILES: O=C(O)c1nc2sc3c(c2c(=O)[nH]1)CCCC3 [Procedure 3, 3,4,5,6,7,8-HEXAHYDRO-4-OXOBENZOTHIENO[2,3-d]-PYRIMIDINE-2-CARBOXYLIC ACID DISODIUM SALT DIHYDRATE]
- IC50 [2, 6]: 300 to 800 nM
- potency in histamine release test relative to cromolyn sodium [2]: substantially more potent than cromolyn sodium

SMILES: O=c1[nH]c(CO)nc2sc3c(c12)CCCC3 [Procedure 55, 5,6,7,8-TETRAHYDRO-2-(HYDROXYMETHYL)BENZOTHIENO[2,3-d]-4(3H)-PYRIMIDINONE]
- ED50 [1, 7]: 34 mg/kg

SMILES: CCc1cc2c(=O)[nH]c(C(=O)O)nc2s1 [Procedure 44, 6-ETHYL-3,4-DIHYDRO-4-OXOTHIENO[2,3-d]PYRIMIDINE-2-ARBOXYLIC ACID DISODIUM SALT DIHYDRATE]
- ED50 [1, 5]: 13 mg/kg

SMILES: CCOC(=O)c1nc2sc(CC)c(C)c2c(=O)[nH]1 [Procedure 27, ETHYL 6-ETHYL-3,4-DIHYDRO-5-METHYL-4-OXOTHIENO[2,3-d]PYRIMIDINE-2-CARBOXYLATE]
- ED50 [1, 5]: 11.4 mg/kg

SMILES: O=C(O)c1cc(=O)c2c(OCC(O)COc3cccc4oc(C(=O)O)cc(=O)c34)cccc2o1 [Cromolyn sodium, reference compound]
- ED50 ([1]; intravenous, simultaneously with the antigen, rat, read-out: ID50 in the rat PCA test): ~1 mg/kg
- activity on oral administration in PCA test ([1]; oral, rat): inactive
- IC50 ([2]; read-out: IC50, inhibition of histamine release): 1000 nM
- activity on oral administration in allergic respiratory test ([3]; oral): inactive

SMILES: Cc1c(CC(C)C)sc2nc(C(=O)O)[nH]c(=O)c12 [Procedure 97, 3,4-Dihydro-5-methyl-6-(2-methylpropyl)-4-oxothieno[2,3-d]pyrimidine-2-carboxylic Acid Dipotassium Salt]
- ED50 ([1]; Rattus norvegicus, intravenous, rats, read-out: ID50 in the PCA test, intravenous): 0.14 mg/kg
- ED50 ([1]; Rattus norvegicus, oral, rats, read-out: ID50 in the PCA test, oral): 2.7 mg/kg

SMILES: CCOC(=O)c1nc2sc(CC)cc2c(=O)[nH]1 [Procedure 29, ETHYL 6-ETHYL-3,4-DIHYDRO-4-OXOTHIENO[2,3-d]PYRIMIDINE-2-CARBOXYLATE]
- LD50 [4]: 1600 to 5000 mg/kg
- ED50 [1, 5]: 3.1 mg/kg
- ED50 [3]: 1 mg/kg

SMILES: CCOC(=O)c1nc2sc3c(c2c(=O)[nH]1)CCCC3 [Procedure 2, ETHYL 3,4,5,6,7,8-HEXAHYDRO-4-OXOBENZOTHIENO[2,3-d]PYRIMIDINE-2-CARBOXYLATE]
- LD50 [4]: > 3160 mg/kg
- ED50 [1, 5]: 15.4 mg/kg
- IC50 [2, 6]: 300 to 800 nM
- potency in histamine release test relative to cromolyn sodium [2]: substantially more potent than cromolyn sodium
- ED50 [3]: 3.8 mg/kg

SMILES: CCOC(=O)c1nc2sc(CC(C)C)c(C)c2c(=O)[nH]1 [Procedure 28, ETHYL 3,4-DIHYDRO-5-METHYL-6-(2-METHYLPROPYL)-4-OXOTHIENO[2,3-d]PYRIMIDINE-2-CARBOXYLATE]
- ED50 [1, 5]: < 5 mg/kg

SMILES: CCOC(=O)C(=O)Nc1sccc1C(N)=O [Procedure 83, Ethyl N-[3-(Aminocarbonyl)thien-2-yl]oxamate]
- ED50 ([1]; oral, rat, read-out: oral ED50 in the rat PCA test for antiallergic activity): 4.5 mg/kg

SMILES: Cc1c(CC(C)C)sc2nc(CO)[nH]c(=O)c12 [Procedure 53, 2-(HYDROXYMETHYL)-5-METHYL-6-(2-METHYLPROPYL)THIENO[2,3-d]PYRIMIDINE-4-(3H)-ONE]
- ED50 [1, 7]: 28 mg/kg

SMILES: CCCCCCc1sc2nc(C(=O)O)[nH]c(=O)c2c1C [Procedure 36, 6-HEXYL-3,4-DIHYDRO-5-METHYL-4-OXOTHIENO[2,3-d]PYRIMIDINE-2-CARBOXYLIC ACID DISODIUM SALT HYDRATE]
- ED50 [1, 5]: 15 mg/kg
- IC50 [2, 6]: 300 to 800 nM
- potency in histamine release test relative to cromolyn sodium [2]: substantially more potent than cromolyn sodium
